Our source for the EC50 values is patent US20160362416A1, “ANTIVIRAL COMPOUNDS” (Gilead Sciences, Inc., priority 2012, published 2016).

pEC50: −log10 of the molar value.

The test system of experiment [1] is stable HCV 1b RLuc replicon cells (genotype 1b Con1 replicon). Briefly: HCV genotype 1b RLuc replicon reporter assay. The following applies: Hepatitis C virus; stable genotype 1b Con1 RLuc replicon cells, 72 hours. It counts as cell-based. How it is done: (§1) Evaluation of cell-based anti-HCV activity: Antiviral potency (EC50) was determined using a Renilla luciferase (RLuc)-based HCV replicon reporter assay. To perform the assay for genotype 1 and 2a JFH-1, stable HCV 1a RLuc replicon cells (harboring a dicistronic genotype 1a H77 replicon that encodes a RLuc reporter), stable HCV lb RLuc replicon cells (harboring a dicistronic genotype 1b Conl replicon that encodes a RLuc reporter), or stable HCV 2a JFH-1 Rluc replicon cells (harboring a dicistronic genotype 2a JFH-1 replicon that encodes a RLuc reporter; with L31 present in NS5A) were dispensed into 384-well plates for EC50 assays. To perform the assay for genotype 2a (with M31 present in NS5A) or 2b, NS5A chimeric genotype 2a JFH-1 replicons that encodes a RLuc-Neo reporter and either genotype 2a J6 strain NS5A gene or genotype 2b MD2b-1 strain NS5A gene (both with M31 present) respectively, were either transiently transfected (t) into Huh-Lunet cells or were established as stably replicating replicon cells (s) is provided. Either cells were dispensed into 384-well plates for EC50 assays. To perform the assay for genotype 3 and 4, NS5A chimeric genotype 1b Conl replicons that encodes a Pi-RLuc reporter and either genotype 3a S52 strain NS5A gene or genotype 4a ED43 strain NS5A gene respectively, were transiently transfected (t) into Huh-Lunet cells, which were subsequently dispensed into 384-well plates. Compounds were dissolved in DMSO at a concentration of 10 mM and diluted in DMSO either manually or using an automated pipeting instrument. Serially 3-fold diluted compounds were either manually mixed with cell culture media and added to the seeded cells or directly added to the cells using an automated instrument. DMSO was used as a negative (solvent; no inhibition) control, and the protease inhibitor ITMN-191 was included at a concentration >100×EC50 as a positive control. 72 hours later, cells were lysed and Renilla luciferase activity quantified as recommended by the manufacturer (Promega-Madison, Wis.). Non-linear regression was performed to calculate EC50 values.
In general terms: Replicon systems follow genome replication, usually without infectious particles.

Experiment [2] relates to stable HCV 1a RLuc replicon cells (genotype 1a H77 replicon). In words: HCV genotype 1a RLuc replicon reporter assay. The class given is cell-based. To be noted: Hepatitis C virus; stable genotype 1a H77 RLuc replicon cells, 72 hours. How it is done: as §1
Experiment [3] has as its system stable HCV 2a JFH-1 Rluc replicon cells (L31 present in NS5A). Briefly: HCV genotype 2a JFH-1 RLuc replicon reporter assay. It counts as cell-based. The following applies: Hepatitis C virus, 72 h, read-out: 2a JFH (nM). How it is done: as §1
Experiment [4] has as its system NS5A chimeric genotype 2a JFH-1 replicon with genotype 2a J6 strain NS5A gene (M31). In words: HCV genotype 2a J6 NS5A chimeric replicon assay, transient (t). It counts as cell-based. The following applies: Hepatitis C virus, 72 h, read-out: 2a J6 (t) (nM). The procedure:
as §1

In experiment [5] the test system is NS5A chimeric genotype 2a JFH-1 replicon with genotype 2b MD2b-1 strain NS5A gene (M31). In words: HCV genotype 2b NS5A chimeric replicon assay, stable (s). It counts as cell-based. To be noted: Hepatitis C virus, 72 h, read-out: 2b (s) (nM). The procedure:
as §1

Experiment [6] deals with NS5A chimeric genotype 1b Con1 replicon with genotype 3a S52 strain NS5A gene. Briefly: HCV genotype 3a NS5A chimeric replicon assay. It counts as cell-based. The following applies: Hepatitis C virus, 72 h, read-out: 3a (nM). How it is done:
as §1

Experiment [7] concerns NS5A chimeric genotype 1b Con1 replicon with genotype 4a ED43 strain NS5A gene. Briefly: HCV genotype 4a NS5A chimeric replicon assay. It counts as cell-based. To be noted: Hepatitis C virus, 72 h, read-out: 4a (s) (nM). How it is done:
as §1, with “[…],” for “were transiently transfected (t) into Huh-Lunet cells,”

The test system of experiment [8] is Y93H in genotype 1a NS5A replicon. In words: Resistance mutant replicon assay, genotype 1a NS5A Y93H. The class given is cell-based, HCV. The following applies: Hepatitis C virus, read-out: 1a Y93H (nM). The procedure: as §1
(§2) To determine the antiviral potency (EC50) against resistance mutants, resistance mutations, including M28T, Q30R, Q30H, Q30E, L31M, Y93C, Y93H, and Y93N in genotype 1a NS5A, Y93H and L31V/Y93H in genotype 1b NS5A, and Y93H for in genotype 3a NS5A, were introduced individually into either 1a Pi-Rluc or 1b Pi-Rluc replicons by site directed mutagenesis. Replicon RNA of each resistant mutant was transiently transfected into Huh-7-derived cured-51 cells and antiviral potency was determined on these transfected cells as described above.

Experiment [9] relates to Y93N in genotype 1a NS5A replicon. Briefly: Resistance mutant replicon assay, genotype 1a NS5A Y93N. It counts as cell-based, HCV. To be noted: Hepatitis C virus, read-out: 1a Y93N (nM). The procedure: as §1, §2
Experiment [10] has as its system Y93H in genotype 3a NS5A replicon. In words: Resistance mutant replicon assay, genotype 3a NS5A Y93H. The following applies: Hepatitis C virus, read-out: 3a Y93H (nM). The class given is cell-based, HCV. How it is done:
as §1, §2

Regarding `COC(=O)N[C@H](C(=O)N1[C@H](c2nc3ccc4cc5c(cc4c3[nH]2)OCc2cc(-c3cnc([C@@H]4CC[C@H](C)N4C(=O)[C@@H](NC(=O)OC)C4C[C@@H](C)O[C@H](C)C4)[nH]3)ccc2-5)C[C@@H]2CCC[C@@H]21)C(C)C` (stereo partly drawn) [Example BI, methyl{(2S)-1-[(2S,3aS,6aS)-2-(9-{2-[(2S,5S)-1-{(2S)-2-[(2R,6R)-2,6-dimethyltetrahydro-2H-pyran-4-yl]-2-[(methoxycarbonyl)amino]acetyl}-5-methylpyrrolidin-2-yl]-1H-imidazol-5-yl}-1,11-dihydroisochromeno[4′,3′:6,7]naphtho[1,2-d]imidazol-2-yl)hexahydrocyclopenta[b]pyrrol-1(2H)-yl]-3-methyl-1-oxobutan-2-yl}carbamate], the pEC50 – broadly, the negative decadic logarithm of the EC50, by convention in mol/L – in experiment [1] was 10.62; in experiment [2], 10.92. Besides, the EC50 in experiment [3] was found to be 0.011 nM; in [4], 0.022 nM; in experiment [5], 0.033 nM; in experiment [6], 0.017 nM; in experiment [7], 0.011 nM; in experiment [8], 0.184 nM. Also, the EC50 in experiment [9] turned out to be 0.466 nM; in experiment [10] it was 3.45 nM.

As for `COC(=O)N[C@H](C(=O)N1[C@@H](C)CC[C@H]1c1ncc(-c2ccc3c(c2)COc2cc4c(cc2-3)CCc2nc([C@@H]3CC[C@H](C)N3C(=O)[C@@H](NC(=O)OC)C3C[C@@H](C)O[C@H](C)C3)[nH]c2-4)[nH]1)C1C[C@@H](C)O[C@H](C)C1` (stereo partly drawn) [Example BF, methyl {(1S)-1-[(2R,6R)-2,6-dimethyltetrahydro-2H-pyran-4-yl]-2-[(2S,5S)-2-(9-{2-[(2S,5S)-1-{(2S)-2-[(2R,6R)-2,6-dimethyltetrahydro-2H-pyran-4-yl]-2-[(methoxycarbonyl)amino]acetyl}-5-methylpyrrolidin-2-yl]-1H-imidazol-5-yl}-1,4,5,11-tetrahydroisochromeno[4′,3′:6,7]naphtho[1,2-d]imidazol-2-yl)-5-methylpyrrolidin-1-yl]-2-oxoethyl}carbamate], the pEC50 is 10.31 in experiment [1] and 10.32 in experiment [2]. Besides, the EC50 came out at 0.021 nM in experiment [3]; 0.035 nM in experiment [4]; 0.042 nM in experiment [5]; 0.065 nM in [6]; 0.025 nM in experiment [7]; 0.035 nM in [8]. Moreover, the EC50 in experiment [9] is 0.125 nM; in experiment [10], 0.365 nM.

On to `COC(=O)N[C@H](C(=O)N1[C@H](c2ncc(-c3ccc4c(c3)COc3cc5c(ccc6nc([C@@H]7C[C@H](C)[C@H](C)N7C(=O)[C@@H](NC(=O)OC)C7C[C@@H](C)O[C@H](C)C7)[nH]c65)cc3-4)[nH]2)C[C@H](C)[C@@H]1C)C1C[C@@H](C)O[C@H](C)C1` (stereo partly drawn) [Example AZ, Methyl {(1S)-1-[(2R,6R)-2,6-dimethyltetrahydro-2H-pyran-4-yl]-2-[(2S ,3S,5S)-5-(5-{2-[(2S,4S,5S)-1-{(2S)-2-[(2R,6R)-2,6-dimethyltetrahydro-2H-pyran-4-yl]-2-[(methoxycarbonyl)amino]acetyl}-4,5-dimethylpyrrolidin-2-yl]-1,11-dihydroisochromeno[4′,3′:6,7]naphtho[1,2-d]imidazol-9-yl}-1H-imidazol-2-yl)-2,3-dimethylpyrrolidin-1-yl]-2-oxoethyl}carbamate], for which the results for the pEC50 in experiment [1] and in experiment [2] were 10.51 and 10.68, respectively. Moreover, the EC50 in experiment [3] turned out to be 0.01 nM; in experiment [5], 0.024 nM; in experiment [6], 0.025 nM; in experiment [7] it was 0.013 nM; in experiment [8] it was 0.025 nM; in experiment [9] it was 0.059 nM. Moreover, the EC50 in [10] worked out at 4.52 nM.

For the molecule `COC[C@H]1C[C@@H](c2nc3ccc4cc5c(cc4c3[nH]2)OCc2cc(-c3cnc([C@@H]4CC[C@H](C)N4C(=O)[C@@H](NC(=O)OC)C4C[C@@H](C)O[C@H](C)C4)[nH]3)ccc2-5)N(C(=O)[C@@H](NC(=O)OC)C2C[C@@H](C)O[C@H](C)C2)C1` (stereo partly drawn) [Example BD, methyl {(1S)-1-[(2R,6R)-2,6-dimethyltetrahydro-2H-pyran-4-yl]-2-[(2S,5S)-2-(5-{2-[(2S,4S)-1-{(2S)-2-[(2R,6R)-2,6-dimethyltetrahydro-2H-pyran-4-yl]-2-[(methoxycarbonyl)amino]acetyl}-4-methoxymethylpyrrolidin-2-yl]-1,11-dihydroisochromeno[4′,3′:6,7]naphtho[1,2-d]imidazol-9-yl}-1H-imidazol-2-yl)-5-methylpyrrolidin-1-yl]-2-oxoethyl}carbamate], the values for the pEC50 in experiment [1] and in [2] were 10.02 and 10.22, respectively. Besides, the EC50 in experiment [3] was found to be 0.017 nM; in experiment [5] it was 0.026 nM; in experiment [6] it was 0.072 nM; in [7], 0.029 nM; in experiment [8], 0.088 nM; in [9], 0.104 nM. Besides, the EC50 in experiment [10] was found to be 0.814 nM.

In the case of `COC(=O)N[C@H](C(=O)N1[C@@H](c2nc3ccc4cc5c(cc4c3[nH]2)OCc2cc(-c3cnc([C@@H]4C[C@H](C)[C@H](C)N4C(=O)[C@@H](NC(=O)OC)C4C[C@@H](C)O[C@H](C)C4)[nH]3)ccc2-5)C[C@@H](C)[C@H]1C)C1C[C@@H](C)O[C@H](C)C1` (stereo partly drawn) [Example BA, Methyl {(1S)-1-[(2R,6R)-2,6-dimethyltetrahydro-2H-pyran-4-yl]-2-[(2R,3R,5R)-5-(9-{2-[(2S,4S,5S)-1-{(2S)-2-[(2R,6R)-2,6-dimethyltetrahydro-2H-pyran-4-yl]-2-[(methoxycarbonyl)amino]acetyl}-4,5-dimethylpyrrolidin-2-yl]-1H-imidazol-5-yl}-1,11-dihydroisochromeno[4′,3′:6,7]naphtho[1,2-d]imidazol-2-yl)-2,3-dimethylpyrrolidin-1-yl]-2-oxoethyl}carbamate], the results for the pEC50 in [1] and in experiment [2] were 10.21 and 9.77, respectively. For the same molecule, the EC50 in [3] was 0.086 nM; in experiment [5], 0.202 nM; in [6], 0.231 nM; in experiment [7], 0.108 nM; in experiment [8] it was 0.359 nM; in experiment [9], 0.496 nM. Further, in [10], the EC50 was 40.6 nM.
